# In patent publication US20240218022A1, “ANTI-VISTA MACROCYCLIC PEPTIDES AND COMPOSITIONS” (BRISTOL-MYERS SQUIBB COMPANY, priority 2022, published 2024):
# Starred links: 1 amine or outer side, 2 acyl side, 3 side chain; linkers in the order of their positions; H or OH if unused. Positions of bridges follow the written chain, without caps; N, C: chain ends. Non-standard residues stand in square brackets, D forms with d. Residues, ends and D or L forms follow the SMILES beside them. γGlu = O=C(O)[C@H](CCC(=O)[*:2])N[*:1]; NMeL = CN[C@@H](CC(C)C)C(=O)O; Ahp(2) = CCCCC[C@H](N)C(=O)O; NMeNle = CCCC[C@H](NC)C(=O)O; Tle = CC(C)(C)[C@H](N)C(=O)O; NMeV = CN[C@H](C(=O)O)C(C)C; NHexGly = CCCCCCNCC(=O)O; Nle = CCCC[C@H](N)C(=O)O; Orn = NCCC[C@H](N)C(=O)O; Aun = NCCCCCCCCCCC(=O)O
# Biological target: T1, mouse VISTA (mVISTA) (Mus musculus, UniProt Q9D659)
# T1 construct: expressed in transfected cells; host or cells: Human embryonic kidney 293T cells
# T1 sequence (Q9D659 33-308): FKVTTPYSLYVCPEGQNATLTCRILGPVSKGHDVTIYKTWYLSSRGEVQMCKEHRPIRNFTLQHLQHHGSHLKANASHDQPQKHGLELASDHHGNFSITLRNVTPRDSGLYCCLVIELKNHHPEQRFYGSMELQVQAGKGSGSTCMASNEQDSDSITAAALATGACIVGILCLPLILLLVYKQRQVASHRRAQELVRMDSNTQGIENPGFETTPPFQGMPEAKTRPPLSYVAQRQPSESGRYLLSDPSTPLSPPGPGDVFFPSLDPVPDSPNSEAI
# Assay: Cell-Based Binding High-Content Assay For mVISTA (HC CBA mVISTA)
# Conditions: read-out: HC CBA mVISTA IC50
# In short: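 This high-content binding assay uses HEK293T cells expressing murine VISTA, measuring displacement of 2 nM biotinylated peptide by fluorescent streptavidin imaging. IC50 values come from four-parameter logistic fitting.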
row,Structure (SMILES),IC50 [nM]
1,CCCCCCN1CC(=O)N[C@@H](Cc2ccc(O)cc2)C(=O)N[C@@H](CC(C)C)C(=O)NCC(=O)N[C@@H](CCCNC(=N)N)C(=O)N[C@@H](CC(C)C)C(=O)N[C@@H](CCCCC)C(=O)N2CCC[C@H]2C(=O)N[C@@H](C(C)C)C(=O)N[C@@H](CO)C(=O)N[C@H](C(=O)N[C@@H](CCC(=O)NCCCCCCCCCCC(=O)O)C(=O)O)CSCC(=O)N[C@@H](Cc2ccccc2)C(=O)N[C@@H](Cc2ccc(O)cc2)C(=O)N[C@@H](CC(=O)O)C1=O [Example 2128] ({CH2CO}-FYD[NHexGly]YLGRL[Ahp(2)]PVSC[γGlu][Aun]-OH; thioether N-14),30.1
2,CCCCCCN1CC(=O)N[C@@H](Cc2ccc(O)cc2)C(=O)N[C@@H](CCCCC)C(=O)N[C@@H](CC(N)=O)C(=O)N[C@@H](CCCNC(=N)N)C(=O)N[C@@H](Cc2c[nH]c3ccccc23)C(=O)N[C@@H](CCCCC)C(=O)N2CCC[C@H]2C(=O)N[C@@H](C(C)C)C(=O)N[C@@H](CO)C(=O)N[C@H](C(=O)N[C@@H](CCC(=O)NCCCCCCCCCCC(=O)O)C(=O)O)CSCC(=O)N[C@@H](Cc2ccccc2)C(=O)N[C@@H](Cc2ccc(O)cc2)C(=O)N[C@@H](CC(=O)O)C1=O [Example 2129] ({CH2CO}-FYD[NHexGly]Y[Ahp(2)]NRW[Ahp(2)]PVSC[γGlu][Aun]-OH; thioether N-14),16.6
3,CCCCCCN1CC(=O)N[C@@H](Cc2ccc(O)cc2)C(=O)N[C@@H](CCCC)C(=O)NCC(=O)N[C@@H](CCCNC(=N)N)C(=O)N[C@@H](CC(C)C)C(=O)N[C@@H](CCCCC)C(=O)N2CCC[C@H]2C(=O)N[C@@H](C(C)C)C(=O)N[C@@H](CC(N)=O)C(=O)N[C@H](C(=O)N[C@@H](CCC(=O)NCCCCCCCCCCC(=O)O)C(=O)O)CSCC(=O)N[C@@H](Cc2ccccc2)C(=O)N[C@@H](Cc2ccc(O)cc2)C(=O)N[C@@H](CC(=O)O)C1=O [Example 2130] ({CH2CO}-FYD[NHexGly]Y[Nle]GRL[Ahp(2)]PVNC[γGlu][Aun]-OH; thioether N-14),37.2
4,CCCCCCN1CC(=O)N[C@@H](Cc2ccc(O)cc2)C(=O)N[C@@H](CC(C)C)C(=O)N[C@@H](CC(N)=O)C(=O)N[C@@H](CCCNC(=N)N)C(=O)N(C)[C@@H](CCCC)C(=O)N[C@@H](CCCCC)C(=O)N2CCC[C@H]2C(=O)N[C@@H](C(C)(C)C)C(=O)N[C@@H](CO)C(=O)N[C@H](C(=O)N[C@@H](CCC(=O)NCCCCCCCCCCC(=O)O)C(=O)O)CSCC(=O)N[C@@H](Cc2ccccc2)C(=O)N[C@@H](Cc2c[nH]c3ccccc23)C(=O)N[C@@H](CC(=O)O)C1=O [Example 2131] ({CH2CO}-FWD[NHexGly]YLNR[NMeNle][Ahp(2)]P[Tle]SC[γGlu][Aun]-OH; thioether N-14),38
5,CCCCCCN1CC(=O)N[C@@H](Cc2ccc(O)cc2)C(=O)N[C@@H](CC(C)C)C(=O)N[C@@H](CC(N)=O)C(=O)N[C@@H](CCCN)C(=O)N(C)[C@@H](CCCC)C(=O)N[C@@H](CCCCC)C(=O)N2CCC[C@H]2C(=O)N[C@@H](C(C)(C)C)C(=O)N[C@@H](CO)C(=O)N[C@H](C(=O)N[C@@H](CCC(=O)NCCCCCCCCCCC(=O)O)C(=O)O)CSCC(=O)N[C@@H](Cc2ccccc2)C(=O)N[C@@H](Cc2ccc(O)cc2)C(=O)N[C@@H](CC(=O)O)C1=O [Example 2132] ({CH2CO}-FYD[NHexGly]YLN[Orn][NMeNle][Ahp(2)]P[Tle]SC[γGlu][Aun]-OH; thioether N-14),23.5
6,CCCCCCN1CC(=O)N[C@@H](Cc2ccc(O)cc2)C(=O)N[C@@H](CC(C)C)C(=O)N[C@@H](CC(N)=O)C(=O)N[C@@H](CCCNC(=N)N)C(=O)N(C)[C@@H](C(C)C)C(=O)N[C@@H](CCCCC)C(=O)N2CCC[C@H]2C(=O)N[C@@H](C(C)(C)C)C(=O)N[C@@H](CO)C(=O)N[C@H](C(=O)N[C@@H](CCC(=O)NCCCCCCCCCCC(=O)O)C(=O)O)CSCC(=O)N[C@@H](Cc2ccccc2)C(=O)N[C@@H](Cc2ccc(O)cc2)C(=O)N[C@@H](CC(=O)O)C1=O [Example 2133] ({CH2CO}-FYD[NHexGly]YLNR[NMeV][Ahp(2)]P[Tle]SC[γGlu][Aun]-OH; thioether N-14),24
7,CCCCCCN1CC(=O)N[C@@H](Cc2ccc(O)cc2)C(=O)N[C@@H](CC(C)C)C(=O)N[C@@H](CC(N)=O)C(=O)N[C@@H](CCCN)C(=O)N(C)[C@@H](CCCC)C(=O)N[C@@H](CCCCC)C(=O)N2CCC[C@H]2C(=O)N[C@@H](C(C)(C)C)C(=O)N[C@@H](CO)C(=O)N[C@H](C(=O)N[C@@H](CCC(=O)NCCCCCCCCCCC(=O)O)C(=O)O)CSCC(=O)N[C@@H](Cc2ccccc2)C(=O)N[C@@H](Cc2c[nH]c3ccccc23)C(=O)N[C@@H](CC(=O)O)C1=O [Example 2134] ({CH2CO}-FWD[NHexGly]YLN[Orn][NMeNle][Ahp(2)]P[Tle]SC[γGlu][Aun]-OH; thioether N-14),21.7
8,CCCCCCN1CC(=O)N[C@@H](Cc2ccc(O)cc2)C(=O)N[C@@H](CC(C)C)C(=O)N[C@@H](CC(N)=O)C(=O)N[C@@H](CCCNC(=N)N)C(=O)N(C)[C@@H](CC(C)C)C(=O)N[C@@H](CCCCC)C(=O)N2CCC[C@H]2C(=O)N[C@@H](C(C)(C)C)C(=O)N[C@@H](CO)C(=O)N[C@H](C(=O)N[C@@H](CCC(=O)NCCCCCCCCCCC(=O)O)C(=O)O)CSCC(=O)N[C@@H](Cc2ccccc2)C(=O)N[C@@H](Cc2ccc(O)cc2)C(=O)N[C@@H](CC(=O)O)C1=O [Example 2135] ({CH2CO}-FYD[NHexGly]YLNR[NMeL][Ahp(2)]P[Tle]SC[γGlu][Aun]-OH; thioether N-14),31
9,CCCCCCN1CC(=O)N[C@@H](Cc2ccc(O)cc2)C(=O)N[C@@H](CC(C)C)C(=O)N[C@@H](CC(N)=O)C(=O)N[C@@H](CCCNC(=N)N)C(=O)N(C)[C@@H](CCCC)C(=O)N[C@@H](CCCCC)C(=O)N2CCC[C@H]2C(=O)N[C@@H](C(C)(C)C)C(=O)N[C@@H](CO)C(=O)N[C@H](C(=O)N[C@@H](CCC(=O)NCCCCCCCCCCC(=O)O)C(=O)O)CSCC(=O)N[C@@H](Cc2ccccc2)C(=O)N[C@@H](Cc2ccc(O)cc2)C(=O)N[C@@H](CC(=O)O)C1=O [Example 2136] ({CH2CO}-FYD[NHexGly]YLNR[NMeNle][Ahp(2)]P[Tle]SC[γGlu][Aun]-OH; thioether N-14),19.8
10,CCCCCCN1CC(=O)N[C@@H](Cc2ccc(O)cc2)C(=O)N[C@@H](CC(C)C)C(=O)N[C@@H](CC(N)=O)C(=O)N[C@@H](CCCN)C(=O)N(C)[C@@H](C(C)C)C(=O)N[C@@H](CCCCC)C(=O)N2CCC[C@H]2C(=O)N[C@@H](C(C)(C)C)C(=O)N[C@@H](CO)C(=O)N[C@H](C(=O)N[C@@H](CCC(=O)NCCCCCCCCCCC(=O)O)C(=O)O)CSCC(=O)N[C@@H](Cc2ccccc2)C(=O)N[C@@H](Cc2ccc(O)cc2)C(=O)N[C@@H](CC(=O)O)C1=O [Example 2137] ({CH2CO}-FYD[NHexGly]YLN[Orn][NMeV][Ahp(2)]P[Tle]SC[γGlu][Aun]-OH; thioether N-14),18
11,CCCCCCN1CC(=O)N[C@@H](Cc2ccc(O)cc2)C(=O)N[C@@H](CC(C)C)C(=O)N[C@@H](CC(N)=O)C(=O)N[C@@H](CCCN)C(=O)N(C)[C@@H](CC(C)C)C(=O)N[C@@H](CCCCC)C(=O)N2CCC[C@H]2C(=O)N[C@@H](C(C)(C)C)C(=O)N[C@@H](CO)C(=O)N[C@H](C(=O)N[C@@H](CCC(=O)NCCCCCCCCCCC(=O)O)C(=O)O)CSCC(=O)N[C@@H](Cc2ccccc2)C(=O)N[C@@H](Cc2ccc(O)cc2)C(=O)N[C@@H](CC(=O)O)C1=O [Example 2138] ({CH2CO}-FYD[NHexGly]YLN[Orn][NMeL][Ahp(2)]P[Tle]SC[γGlu][Aun]-OH; thioether N-14),33
12,CCCCCCN1CC(=O)N[C@@H](Cc2ccc(O)cc2)C(=O)N[C@@H](CCCCN)C(=O)N[C@@H](CC(N)=O)C(=O)N[C@@H](CCCN)C(=O)N(C)[C@@H](CCCC)C(=O)N[C@@H](CCCCC)C(=O)N2CCC[C@H]2C(=O)N[C@@H](C(C)(C)C)C(=O)N[C@@H](CO)C(=O)N[C@H](C(=O)N[C@@H](CCC(=O)NCCCCCCCCCCC(=O)O)C(=O)O)CSCC(=O)N[C@@H](Cc2ccccc2)C(=O)N[C@@H](Cc2ccc(O)cc2)C(=O)N[C@@H](CC(=O)O)C1=O [Example 2139] ({CH2CO}-FYD[NHexGly]YKN[Orn][NMeNle][Ahp(2)]P[Tle]SC[γGlu][Aun]-OH; thioether N-14),45.7
13,CCCCCCN1CC(=O)N[C@@H](Cc2ccc(O)cc2)C(=O)N[C@@H](CCCCN)C(=O)N[C@@H](CC(N)=O)C(=O)N[C@@H](CCCN)C(=O)N(C)[C@@H](CCCC)C(=O)N[C@@H](CCCCC)C(=O)N2CCC[C@H]2C(=O)N[C@@H](C(C)(C)C)C(=O)N[C@@H](CC(=O)O)C(=O)N[C@H](C(=O)N[C@@H](CCC(=O)NCCCCCCCCCCC(=O)O)C(=O)O)CSCC(=O)N[C@@H](Cc2ccccc2)C(=O)N[C@@H](Cc2ccc(O)cc2)C(=O)N[C@@H](CC(=O)O)C1=O [Example 2140] ({CH2CO}-FYD[NHexGly]YKN[Orn][NMeNle][Ahp(2)]P[Tle]DC[γGlu][Aun]-OH; thioether N-14),41.9
14,CCCCCCN1CC(=O)N[C@@H](Cc2ccc(O)cc2)C(=O)N[C@@H](CCCCC)C(=O)N[C@@H](CC(N)=O)C(=O)N[C@@H](CCCN)C(=O)N(C)[C@@H](CCCC)C(=O)N[C@@H](CCCCC)C(=O)N2CCC[C@H]2C(=O)N[C@@H](C(C)(C)C)C(=O)N[C@@H](CC(=O)O)C(=O)N[C@H](C(=O)N[C@@H](CCC(=O)NCCCCCCCCCCC(=O)O)C(=O)O)CSCC(=O)N[C@@H](Cc2ccccc2)C(=O)N[C@@H](Cc2ccc(O)cc2)C(=O)N[C@@H](CC(=O)O)C1=O [Example 2141] ({CH2CO}-FYD[NHexGly]Y[Ahp(2)]N[Orn][NMeNle][Ahp(2)]P[Tle]DC[γGlu][Aun]-OH; thioether N-14),26.5
